Results reported in ChEMBL document CHEMBL5244211, “Current anti-diabetic agents and their molecular targets: A review” (Eur J Med Chem, 2018).

Experiments:
[1] = target: T1, Free fatty acid receptor 1 (Homo sapiens, UniProt O14842); test: Agonist activity at human GPR40 expressed in HEK293 cells incubated for 1 hrs by calcium flux assay; type: cell-based
[2] = target: T1, Free fatty acid receptor 1; test: Agonist activity at FFAR1 (unknown origin) incubated for 16 hrs by Promoter-luciferase assay
[3] = target: Free fatty acid receptor 1 (Rattus norvegicus) (UniProt Q8K3T4); test: In vivo agonist activity at FFAR1 in streptozotocin (STZ)-induced Wistar rat assessed as reduction in blood glucose AUC at 1 mg/kg,iv and measured upto 120 mins by OGTT analysis; type: functional, organism-based; set-up: scale not given: the % may be the effect or the level left
Chain of Free fatty acid receptor 1 (Rattus norvegicus) (Q8K3T4 whole entry): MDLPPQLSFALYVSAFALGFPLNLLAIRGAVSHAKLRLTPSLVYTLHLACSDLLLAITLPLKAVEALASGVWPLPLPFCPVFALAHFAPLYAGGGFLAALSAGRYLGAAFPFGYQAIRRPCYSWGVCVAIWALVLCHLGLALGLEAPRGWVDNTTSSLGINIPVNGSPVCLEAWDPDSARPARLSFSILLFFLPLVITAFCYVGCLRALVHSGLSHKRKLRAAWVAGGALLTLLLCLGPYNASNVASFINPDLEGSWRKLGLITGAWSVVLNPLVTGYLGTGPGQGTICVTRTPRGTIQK

[4] = Clearance in Wistar rat at 1 mg/kg,iv; type: ADME, organism-based; conditions: in vivo
[5] = target: Free fatty acid receptor 1 (Rattus norvegicus) (UniProt Q8K3T4); test: In vivo agonist activity at FFAR1 in iv dosed streptozotocin (STZ)-induced Wistar rat model assessed as reduction in blood glucose AUC and measured upto 120 mins by OGTT analysis; type: functional, organism-based
[6] = Oral bioavailability in Wistar rat at 3 mg/kg; type: ADME, organism-based; conditions: in vivo

T1 sequence (O14842 whole entry): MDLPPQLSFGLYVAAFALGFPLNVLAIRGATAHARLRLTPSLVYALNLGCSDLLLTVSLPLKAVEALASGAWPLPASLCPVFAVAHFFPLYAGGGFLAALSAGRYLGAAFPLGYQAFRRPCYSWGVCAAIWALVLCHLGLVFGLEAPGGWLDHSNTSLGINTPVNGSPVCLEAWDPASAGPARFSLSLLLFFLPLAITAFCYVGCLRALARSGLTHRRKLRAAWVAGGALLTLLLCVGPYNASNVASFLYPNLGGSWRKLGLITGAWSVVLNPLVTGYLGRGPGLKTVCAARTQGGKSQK

Structure (SMILES)	EC50 [1] [µM]	EC50 [2] [µM]	Activity [3] [%]	clearance [4] [L/h/kg]	ED50 [5] [mg/kg]	bioavailability [6] [%]
COc1ccc(F)c(-c2ncc(COc3ccc([C@@H](CC(=O)O)C4CC4)cc3)nc2OCCC(F)(F)F)c1	0.006					
CC#CC(CC(=O)O)c1ccc(OCc2cccc(CN3CCc4oc(C5CC5)nc4C3)c2)cc1 (stereo unspecified)		0.05	46	0.0162	0.09	45
